Data set [1] in a line: Hygroscopicity of the salts. Format: physicochemical.
Data set [2] in a line: Corrosiveness of the salts. Format: physicochemical.
Data set [3] can be described thus: Storage of tablets at room temperature in an open container (discoloration). In kind it is physicochemical. The following applies: tablets stored 9 days at room temperature (15-25° C.) in an open container. How it is done: Tablets were stored for 9 days at room temperature (15-25° C.) in an open container.
The subject of the next data set is mammals. Put plainly: Toxicity of prasugrel salts with regard to mammals. In kind it is in vivo. The following applies: compared with other salts. The source says: Although the exact reason for this low toxicity hat not yet been found, it is assumed that this effect is due to a different solubility of the salts. The toxicity and safety margin of prasugrel can be controlled by varying the solubility of its salts.

Where a name gives a salt, the structure may show the parent alone.

For the molecule `CC(=O)Oc1cc2c(s1)CCN(C(C(=O)C1CC1)c1ccccc1F)C2.O=S(=O)(O)c1cccc2c(S(=O)(=O)O)cccc12` (stereo not shown) [prasugrel napadisylate, Prasugrel-1,5-Dinapsylate], the hygroscopicity entry in data set [1] is recorded as “not hygroscopic”. The corrosiveness result in data set [2] is “not corrosive”.
Taken in the same sequence, the figures for `CC(=O)Oc1cc2c(s1)CCN(C(C(=O)C1CC1)c1ccccc1F)C2.O=S(=O)(O)c1ccc2ccccc2c1` (stereo not shown) [prasugrel napsylate, Prasugrel-2-Napsylate] were “not hygroscopic” and “not corrosive”.
Turning to `CC(=O)Oc1cc2c(s1)CCN(C(C(=O)C1CC1)c1ccccc1F)C2` (stereo not shown) [prasugrel-HCl, Prasugrel-Hydrochloride], the “discoloration of tablets on storage” value in data set [3] was “clear discoloration”.
For Prasugrel-Besylate [prasugrel besylate], the toxicity entry with mammals is “very low toxicity”. In addition, in data set [1], the hygroscopicity entry was “not hygroscopic”.

The values are drawn from US20110003847A1, “Prasugrel Salts with Improved Properties” (HELM AG, priority 2008, published 2011).
